# Publication PMC11085308, “Design, Synthesis and Biological Activity of Novel Methoxy- and Hydroxy-Substituted N-Benzimidazole-Derived Carboxamides” (Molecules, 2024)
# Legend:
# S. aureus ATCC 29213 = experiment: Antibacterial activity in vitro, broth microdilution MIC; type: cell-based, Staphylococcus aureus; conditions: for MIC S. aureus ATCC 29213: broth microdilution, 16–24 h at 37 °C, unit inferred
# Description: (§1) The in vitro antibacterial activity of the synthesized benzamides 7–12 and 31–37 was evaluated against a panel of eight different bacterial strains. The Gram-positive bacterial strains comprised S. aureus, S. pneumoniae and E. faecalis, and the panel of Gram-negative bacteria consisted of E. coli, K. pneumoniae, A. baumannii and P. aeruginosa.
# (§2) The selected bacterial strains were Gram-negative Escherichia coli (ATCC 25922) and Gram-positive Staphylococcus aureus (ATCC 29213) and S. Pneumoniae (ATCC 49619). The Saccharomyces cerevisiae ATCC 7752 strain was tested as a eukaryotic model organism. Synthesized compounds were prepared as 10 mM DMSO solutions and tested in a final concentration range of 100–0.2 µM [39].
# (§3) Broth microdilution testing was performed according to CLSI (Clinical Laboratory Standards Institute) guidelines. The MIC (minimal inhibitory concentration) value was defined as the last tested concentration of a compound at which there is no visible growth of bacteria. Inoculums for each microorganism were prepared using the direct colony suspension method, where broth solutions that achieved turbidity equivalent to 0.5 McFarland standards were additionally diluted 100× with cation-adjusted MH media (Becton Dickinson). All test plates were incubated for 16–24 h at 37 °C.
# E. faecalis ATCC 29212 = experiment: as above; type: cell-based; conditions: for MIC E. faecalis ATCC 29212: broth microdilution, 16–24 h at 37 °C, unit inferred
# Description: as §1, §2, §3
# A. baumannii ATCC 17978 = experiment: as above; type: cell-based; conditions: 16–24 h at 37 °C, unit inferred
# Description: as §1, §2, §3
# P. aeruginosa ATCC 27853 = experiment: as above; type: cell-based; conditions: 16–24 h at 37 °C, unit inferred
# Description: as §1, §2, §3
# E. coli efflux del. = experiment: microbe, parasite or virus in culture; type: cell-based, Escherichia coli; conditions: broth microdilution, 16–24 h at 37 °C; unit inferred
# Description: as §1, §2, §3
# E. coli ATCC 25922 = experiment: Antibacterial activity in vitro, broth microdilution MIC; type: cell-based, Escherichia coli; conditions: 16–24 h at 37 °C, unit inferred
# Description: as §1, §2, §3
# [1] = DPPH free radical scavenging assay; conditions: compared to the standard BHT
# From the text: (§4) The synthesized benzazole acrylonitrile derivatives were screened for their antioxidative potency by using in vitro assays, namely DPPH and ABTS as free radical scavenging assays and FRAP as a ferric reducing/antioxidant power assay.
# The well-known antioxidant butylated hydroxytoluene (BHT) was used as a standard for comparing activity during testing. The DPPH assay is a standard commonly used test for the in vitro assessment of the antioxidant capacity of novel compounds by using their ability to scavenge the stable radical 1,1-diphenyl-picrylhydrazyl. […] Another test used to evaluate the antioxidative capacity of novel compounds was the ABTS test, by which their activity was evaluated by scavenging the stable radical 3-ethylbenzthiazoline-6-sulphonic acid.
# Determination of the reducing activity of the stable radical 1,1-diphenyl-picrylhydrazyl (DPPH):
# The reducing activity of the investigated systems was measured by the DPPH method according to previously described procedures with modifications to ensure their use on a 96-well microplate. Briefly, equal volumes of various concentrations of the tested molecules (dissolved in DMSO) were added to a solution of DPPH (final concentration of 50 µM in absolute ethanol). Ethanol and DMSO were used as control solutions in line with earlier reports. The radical scavenging activity was calculated using the following formula:[(A517 control − A517 compound)/A517 control] × 100.
# The IC50 values were calculated from dose–response curves using nonlinear regression analysis with the GraphPad Prism 8 Ink. program. All measurements were carried out in triplicate.
# [2] = system: HEK 293 (human embryonic kidney); experiment: Antiproliferative activity in vitro, MTT assay, 72 h, non-cancerous cell line; type: cell-based; conditions: HEK293, 72 h incubation, '-' with footnote a = did not show biological activity due to precipitation
# Description: (§5) The experiments were carried out on four human cell lines which are derived from three cancer types: H460 (lung carcinoma), HCT 116 (colorectal carcinoma), MCF-7 (human breast cancer) and the non-cancerous cell line HEK 293 (human embryonic kidney).
# (§6) The results are compared with the known antiproliferative agents doxorubicin and etoposide. […] Therefore, it is not clear whether the observed antiproliferative activity is due to the biological activity of the compounds or to precipitation.
# (§7) The experiments were performed on four human cell lines, including HCT 116 (colon carcinoma), H 460 (lung carcinoma), MCF-7 (breast carcinoma) and HEK 293 (human embryonic kidney cells), in line with previously published experimental procedures. Briefly, the cells were grown in DMEM medium with the addition of 10% fetal bovine serum (FBS), 2 mM of L-glutamine, 100 U/mL of penicillin and 100 µg/mL of streptomycin and cultured as monolayers at 37 °C in a humidified atmosphere with 5% CO2. Cells were seeded at 2 × 10^3 cells/well in standard 96-well microtiter plates and left to attach for 24 h. The next day, a test compound was added in five serial 10-fold dilutions. The rate of cell growth was evaluated after 72 h of incubation with MTT assays. […] Each test was performed in quadruplicate in at least two individual experiments.
# [3] = Ferric reducing/antioxidant power (FRAP assay); parameters: FRAP: unit not given here; conditions: for FRAP: Fe2+ equivalents, triplicate; for FRAP ferric reducing/antioxidant power, in words: compared to the standard BHT
# Description: as §4
# The antioxidant activity of a substance is directly related to its reducing power.
# The FRAP method was carried out according to previously described procedures with some modifications to make it compatible with an assay on a 96-well microplate. All results were expressed as Fe^2+ equivalents (Fe^2+ µmol). Ferrous sulphate (FeSO4 × 7H2O) was used to develop a standard curve of 20–2000 µmol/l for the FRAP test.
# [4] = system: MCF-7 (human breast cancer); experiment: Antiproliferative activity in vitro, MTT assay, 72 h; type: cell-based; conditions: MCF7, 72 h incubation
# Description: as §5, §6, §7
# [5] = system: HCT 116 (colorectal carcinoma); experiment: as above; type: cell-based; conditions: Homo sapiens, 72 h incubation, '-' with footnote a = did not show biological activity due to precipitation
# Description: as §5, §6, §7
# H460 (lung carcinoma) = experiment: as above; type: cell-based; conditions: Homo sapiens, NCI-H460, 72 h incubation
# Description: as §5, §6, §7
Structure (SMILES),MIC S. aureus ATCC 29213 (S. aureus ATCC 29213) [µM],MIC E. faecalis ATCC 29212 (E. faecalis ATCC 29212) [µM],MIC A. baumannii ATCC 17978 (A. baumannii ATCC 17978) [µM],MIC P. aeruginosa ATCC 27853 (P. aeruginosa ATCC 27853) [µM],MIC E. coli efflux del. (E. coli efflux del.) [µM],MIC E. coli ATCC 25922 (E. coli ATCC 25922) [µM],"DPPH free radical scavenging activity, in words [1]",IC50 [2] [µM],FRAP [3],"FRAP ferric reducing/antioxidant power, in words [3]","MIC (E. faecalis ATCC 29212; Enterococcus faecalis, ATCC29212, read-out: MIC E. faecalis) [µM]","Selectivity of antibacterial activity, in words (E. faecalis ATCC 29212; against the Gram-positive strain E. faecalis)",IC50 [4] [µM],IC50 [5] [µM],IC50 (H460 (lung carcinoma)) [µM],"MIC (S. aureus ATCC 29213; Staphylococcus aureus, ATCC29213, read-out: MIC S. aureus) [µM]",melting point [°C]
"CC1(C)S[C@@H]2[C@H](NC(=O)[C@H](N)c3ccccc3)C(=O)N2[C@H]1C(=O)O [Ampicillin, ampicillin, reference compound]",0.5,1,32,> 64,,,,,,,,,,,,,
"CC[C@H]1OC(=O)[C@H](C)[C@@H](O[C@H]2C[C@@](C)(OC)[C@@H](O)[C@H](C)O2)[C@H](C)[C@@H](O[C@@H]2O[C@H](C)C[C@H](N(C)C)[C@H]2O)[C@](C)(O)C[C@@H](C)CN(C)[C@H](C)[C@@H](O)[C@]1(C)O [Azithromycin, azithromycin, reference compound]",1,8,8,32,0.5,4,,,,,,,,,,,
"CC(C)(O/N=C(\C(=O)N[C@@H]1C(=O)N2C(C(=O)[O-])=C(C[n+]3ccccc3)CS[C@H]12)c1csc(N)n1)C(=O)O [Ceftazidime, ceftazidime, reference compound]",4,> 64,4,2,,,,,,,,,,,,,
"O=C(O)c1cn(C2CC2)c2cc(N3CCNCC3)c(F)cc2c1=O [Ciprofloxacin, ciprofloxacin, reference compound]",0.25,4,,,,,,,,,,,,,,,
"COc1c(O)cc(C(=O)Nc2nc3ccccc3[nH]2)cc1O [Compound 8, N-(1H-benzo[d]imidazol-2-yl)-3,5-dihydroxy-4-methoxybenzamide]",> 64,8,> 64,> 64,> 64,> 64,significantly improved,49.4 ± 3.3,2461.93 ± 21.42,excellent in vitro antioxidant activity,8,selective antibacterial activity,52.9 ± 16,> 100,91.8 ± 1,,
"CC(C)Cn1c(NC(=O)c2cc(O)c(O)c(O)c2)nc2ccccc21 [Compound 33, 3,4,5-Trihydroxy-N-(1-isobutyl-1H-benzo[d]imidazol-2-yl)benzamide]",32,64,> 64,> 64,64,> 64,significantly improved,77.1 ± 7.9,4154.35 ± 1.26,excellent in vitro antioxidant activity,,,90.8 ± 1.6,43.2 ± 18.6,> 100,32,291 to 293
